{"source": "patent US20100298141A1", "about": "“SUBSTITUTED PYRIDINE N-OXIDE HERBICIDES” (E. I. DU PONT DE NEMOURS AND COMPANY, priority 2007, published 2010)", "key": {"[1]": {"system": "wheat", "assay": "Test C pre-/postemergence test", "type": "in vivo, Triticum aestivum", "in_short": "(§1)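 Compounds in a non-phytotoxic solvent with surfactant applied preemergence to seeded pots and, at the same time, postemergence to plants 2–18 cm tall (1- to 4-leaf stage). Paddy tests: pots flooded to 3 cm, compound applied into the water, depth held throughout.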"}, "[2]": {"system": "morningglory", "assay": "Test A pre-/postemergence greenhouse test", "type": "in vivo, Ipomoea spp.", "details": "for Morningglory plant response rating: 0 to 100 scale", "in_short": "(§2)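 Two application timings were run side by side in the greenhouse. Before emergence, compound went onto the soil surface of loam–sand pots as a directed spray; after emergence, plants at 2–10 cm and the one- to two-leaf stage were treated. Visual injury versus controls was rated at approximately day ten.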"}, "[3]": {"system": "yellow nutsedge", "assay": "Test C pre-/postemergence test", "type": "in vivo, Cyperus esculentus", "in_short": "as §1"}, "[4]": {"system": "common (oilseed) sunflower", "assay": "Test C pre-/postemergence test", "type": "in vivo, Helianthus annuus", "in_short": "as §1"}, "[5]": {"system": "crabgrass", "assay": "Test C pre-/postemergence test", "type": "in vivo, Digitaria sanguinalis", "in_short": "as §1"}, "[6]": {"system": "woolly cupgrass", "assay": "Test C pre-/postemergence test", "type": "in vivo, Eriochloa villosa", "in_short": "as §1"}, "[7]": {"system": "green foxtail", "assay": "Test C pre-/postemergence test", "type": "in vivo, Setaria viridis", "in_short": "as §1"}, "[8]": {"system": "cocklebur", "assay": "Test C pre-/postemergence test", "type": "in vivo, Xanthium strumarium", "in_short": "as §1"}, "[9]": {"system": "Italian ryegrass", "assay": "Test C pre-/postemergence test", "type": "in vivo, Lolium multiflorum", "details": "for Ryegrass, Italian plant response rating: preemergence, scale 0 (no effect) to 100 (complete control)", "in_short": "as §1"}, "[10]": {"system": "morningglory", "assay": "Test C pre-/postemergence test", "type": "in vivo, Ipomoea coccinea", "in_short": "as §1"}, "[11]": {"system": "umbrella sedge", "assay": "Test C flooded paddy test", "type": "in vivo, Cyperus difformis", "details": "Flood", "in_short": "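Pots were flooded to 3 cm above the soil surface at treatment, compound applied directly to the paddy water, and that depth held throughout. Plants were kept in a greenhouse for 13 to 15 days, then visually rated against untreated controls.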"}, "[12]": {"system": "pigweed", "assay": "Test C pre-/postemergence test", "type": "in vivo, Amaranthus retroflexus", "in_short": "as §1"}, "[13]": {"system": "corn", "assay": "Test C pre-/postemergence test", "type": "in vivo, Zea mays", "in_short": "as §1"}, "[14]": {"system": "kochia", "assay": "Test C pre-/postemergence test", "type": "in vivo, Kochia scoparia", "in_short": "as §1"}, "[15]": {"system": "blackgrass", "assay": "Test C pre-/postemergence test", "type": "in vivo, Alopecurus myosuroides", "in_short": "as §1"}, "[16]": {"system": "soybean", "assay": "Test C pre-/postemergence test", "type": "in vivo, Glycine max", "in_short": "as §1"}, "[17]": {"system": "barnyardgrass", "assay": "Test A pre-/postemergence greenhouse test", "type": "in vivo, Echinochloa crus-galli", "details": "for Barnyardgrass plant response rating: 0 to 100 scale", "in_short": "as §2"}, "[18]": {"details": "62 g ai/ha, Preemergence, scale 0 to 100"}, "[19]": {"details": "125 g ai/ha, preemergence, scale 0 (no effect) to 100 (complete control)"}, "[20]": {"details": "Preemergence, 31 g ai/ha, scale 0 to 100 (0 no effect, 100 complete control)"}, "[21]": {"details": "preemergence, 250 g ai/ha, scale 0 (no effect) to 100 (complete control)"}, "[22]": {"details": "Postemergence, 125 g ai/ha, 0 to 100 scale where 0 is no effect and 100 is complete control"}, "[23]": {"details": "Postemergence, 500 g ai/ha, 0 is no effect, 100 is complete control"}, "[24]": {"details": "Preemergence, 125 g ai/ha, 0 no effect, 100 complete control"}, "[25]": {"details": "Preemergence, 500 g ai/ha, 0 no effect, 100 complete control"}}}
{"compound": "CCc1cc[n+]([O-])c([S+]([O-])Cc2c(C(F)(F)F)nn(C)c2OC(F)F)c1", "note": "(centres unmarked) [Compound 101]", "values": [{"measurement": "Wheat plant response rating", "setting": "[1]; [18]", "value": 65}, {"measurement": "Wheat plant response rating", "setting": "[1]; [19]", "value": 85}, {"measurement": "Plant response rating, Wheat", "setting": "[1]; [20]", "value": 50}, {"measurement": "Wheat plant response rating", "setting": "[1]; [21]", "value": 95}, {"measurement": "Plant response rating, Morningglory", "setting": "[2]; [22]", "value": 70}, {"measurement": "Morningglory plant response rating", "setting": "[2]; [23]", "value": 100}, {"measurement": "Morningglory plant response rating", "setting": "[2]; [24]", "value": 80}, {"measurement": "Morningglory plant response rating", "setting": "[2]; [25]", "value": 100}, {"measurement": "Nutsedge, Yellow plant response rating", "setting": "[3]; [18]", "value": 20}, {"measurement": "Nutsedge, Yellow plant response rating", "setting": "[3]; [19]", "value": 60}, {"measurement": "Plant response rating, Nutsedge, Yellow", "setting": "[3]; [20]", "value": 0}, {"measurement": "Nutsedge, Yellow plant response rating", "setting": "[3]; [21]", "value": 100}, {"measurement": "Sunflower plant response rating", "setting": "[4]; [18]", "value": 0}, {"measurement": "Sunflower plant response rating", "setting": "[4]; [19]", "value": 5}, {"measurement": "Plant response rating, Sunflower", "setting": "[4]; [20]", "value": 0}, {"measurement": "Sunflower plant response rating", "setting": "[4]; [21]", "value": 60}, {"measurement": "Crabgrass, Large plant response rating", "setting": "[5]; [18]", "value": 85}, {"measurement": "Crabgrass, Large plant response rating", "setting": "[5]; [19]", "value": 95}, {"measurement": "Plant response rating, Crabgrass, Large", "setting": "[5]; [20]", "value": 50}, {"measurement": "Crabgrass, Large plant response rating", "setting": "[5]; [21]", "value": 98}, {"measurement": "Cupgrass, Woolly plant response rating", "setting": "[6]; [18]", "value": 80}, {"measurement": "Cupgrass, Woolly plant response rating", "setting": "[6]; [19]", "value": 85}, {"measurement": "Plant response rating, Cupgrass, Woolly", "setting": "[6]; [20]", "value": 40}, {"measurement": "Cupgrass, Woolly plant response rating", "setting": "[6]; [21]", "value": 95}, {"measurement": "Foxtail, Green plant response rating", "setting": "[7]; [18]", "value": 95}, {"measurement": "Foxtail, Green plant response rating", "setting": "[7]; [19]", "value": 98}, {"measurement": "Plant response rating, Foxtail, Green", "setting": "[7]; [20]", "value": 85}, {"measurement": "Foxtail, Green plant response rating", "setting": "[7]; [21]", "value": 100}, {"measurement": "Cocklebur plant response rating", "setting": "[8]; [18]", "value": 0}, {"measurement": "Cocklebur plant response rating", "setting": "[8]; [19]", "value": 10}, {"measurement": "Plant response rating, Cocklebur", "setting": "[8]; [20]", "value": 0}, {"measurement": "Cocklebur plant response rating", "setting": "[8]; [21]", "value": 15}, {"measurement": "Ryegrass, Italian plant response rating", "setting": "[9]; 125 g ai/ha", "value": 0}, {"measurement": "Plant response rating, Ryegrass, Italian", "setting": "[9]; [20]", "value": 0}, {"measurement": "Ryegrass, Italian plant response rating", "setting": "[9]; 250 g ai/ha", "value": 60}, {"measurement": "Morningglory plant response rating", "setting": "[10]; [18]", "value": 60}, {"measurement": "Morningglory plant response rating", "setting": "[10]; [19]", "value": 100}, {"measurement": "Plant response rating, Morningglory", "setting": "[10]; [20]", "value": 20}, {"measurement": "Morningglory plant response rating", "setting": "[10]; [21]", "value": 100}, {"measurement": "Plant response rating, Sedge, Umbrella", "setting": "[11]; 62 g ai/ha, scale 0 to 100 (0 no effect, 100 complete control)", "value": 0}, {"measurement": "Plant response rating, Sedge, Umbrella", "setting": "[11]; 250 g ai/ha, scale 0 to 100, 0 no effect, 100 complete control, 13 to 15 days", "value": 90}, {"measurement": "Pigweed plant response rating", "setting": "[12]; [18]", "value": 50}, {"measurement": "Pigweed plant response rating", "setting": "[12]; [19]", "value": 95}, {"measurement": "Plant response rating, Pigweed", "setting": "[12]; [20]", "value": 50}, {"measurement": "Pigweed plant response rating", "setting": "[12]; [21]", "value": 98}, {"measurement": "Corn plant response rating", "setting": "[13]; [18]", "value": 75}, {"measurement": "Corn plant response rating", "setting": "[13]; [19]", "value": 90}, {"measurement": "Plant response rating, Corn", "setting": "[13]; [20]", "value": 40}, {"measurement": "Corn plant response rating", "setting": "[13]; [21]", "value": 98}, {"measurement": "Kochia plant response rating", "setting": "[14]; [18]", "value": 30}, {"measurement": "Kochia plant response rating", "setting": "[14]; [19]", "value": 85}, {"measurement": "Plant response rating, Kochia", "setting": "[14]; [20]", "value": 0}, {"measurement": "Kochia plant response rating", "setting": "[14]; [21]", "value": 100}, {"measurement": "Blackgrass plant response rating", "setting": "[15]; [18]", "value": 30}, {"measurement": "Blackgrass plant response rating", "setting": "[15]; [19]", "value": 70}, {"measurement": "Plant response rating, Blackgrass", "setting": "[15]; [20]", "value": 0}, {"measurement": "Blackgrass plant response rating", "setting": "[15]; [21]", "value": 90}, {"measurement": "Soybean plant response rating", "setting": "[16]; [18]", "value": 60}, {"measurement": "Soybean plant response rating", "setting": "[16]; [19]", "value": 75}, {"measurement": "Plant response rating, Soybean", "setting": "[16]; [20]", "value": 0}, {"measurement": "Soybean plant response rating", "setting": "[16]; [21]", "value": 85}, {"measurement": "Plant response rating, Barnyardgrass", "setting": "[17]; [22]", "value": 80}, {"measurement": "Barnyardgrass plant response rating", "setting": "[17]; [23]", "value": 90}, {"measurement": "Barnyardgrass plant response rating", "setting": "[17]; [24]", "value": 90}, {"measurement": "Barnyardgrass plant response rating", "setting": "[17]; [25]", "value": 100}]}
